pIC50: −log10 of the molar value.
What follows are compounds tested on HCT-116 (assay: Cytotoxicity against human HCT116 cells).
Type: functional, cell-based

| Compound | pIC50 |
| --- | --- |
| C=CC[C@@H](C[C@@H](C[C@@H](C[C@@H](C[C@@H](C[C@@H](C[C@@H](C[C@@H](C[C@H](OC)/C(C)=C/CCCCC)OC)OC)OC)OC)OC)OC)OC)OC | 4.07 |
| C=CC[C@@H](C[C@@H](C[C@@H](C[C@@H](C[C@@H](C[C@@H](C[C@@H](C[C@@H](C[C@@H](C[C@H](OC)/C(C)=C/CCCCC)OC)OC)OC)OC)OC)OC)OC)OC)OC | 4.12 |
| C=CC[C@@H](C[C@@H](C[C@@H](C[C@@H](C[C@@H](C[C@@H](C[C@H](OC)/C(C)=C/CCCCC)OC)OC)OC)OC)OC)OC | 3.92 |
| C=CC[C@@H](C[C@@H](C[C@@H](C[C@@H](C[C@@H](C[C@@H](C[C@@H](C[C@H](OC)/C(C)=C/CCCCC)OC)OC)OC)OC)OC)OC)OC | 3.97 |
| C=CC[C@@H](C[C@@H](C[C@@H](C[C@@H](C[C@@H](C[C@@H](C[C@@H](C[C@@H](C[C@@H](C[C@@H](C[C@H](OC)/C(C)=C/CCCCC)OC)OC)OC)OC)OC)OC)OC)OC)OC)OC | 4.04 |

From ChEMBL document CHEMBL1150618, “Isotactic polymethoxydienes from the Philippines sponge Myriastra clavosa” (J Nat Prod, 2002)
